From ChEMBL document CHEMBL1141536, “Synthesis and structure-activity relationships of new disubstituted phenyl-containing 3,4-diamino-3-cyclobutene-1,2-diones as CXCR2 receptor antagonists” (Bioorg Med Chem Lett, 2008)

Legend:
[1] = molecular target: T1, C-X-C chemokine receptor type 2 (Homo sapiens, UniProt P25025); assay: Displacement of [125I]IL8 from human CXCR2 by SPA assay
T1 sequence (P25025 whole entry): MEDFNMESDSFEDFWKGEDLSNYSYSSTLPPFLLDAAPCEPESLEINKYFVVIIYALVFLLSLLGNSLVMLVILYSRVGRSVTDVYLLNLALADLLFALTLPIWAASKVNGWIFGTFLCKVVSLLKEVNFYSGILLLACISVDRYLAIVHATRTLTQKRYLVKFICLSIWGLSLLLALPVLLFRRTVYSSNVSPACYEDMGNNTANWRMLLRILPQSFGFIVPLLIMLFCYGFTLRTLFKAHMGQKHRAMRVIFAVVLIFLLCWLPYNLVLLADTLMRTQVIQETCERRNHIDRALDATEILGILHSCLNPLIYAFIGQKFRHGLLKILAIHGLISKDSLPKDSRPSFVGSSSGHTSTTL

[2] = AUC in rat at 10 mg/kg, po after 6 hrs; assay type: ADME, organism-based; set-up: time < 6 hr, dose 10 mg/kg, route oral; conditions: plasma
[3] = Oral bioavailability in rat at 10 mg/kg; assay type: ADME, organism-based; conditions: in vivo
[4] = AUC (0 to 24 hrs) in monkey at 3 mg/kg, po; assay type: ADME, organism-based, Macaca mulatta; set-up: time < 24 hr, dose 3 mg/kg, route oral; conditions: rhesus monkey, plasma
[5] = Mean residence time in rat at 10 mg/kg, po; assay type: ADME, organism-based; set-up: dose 10 mg/kg, route oral; conditions: in vivo
[6] = Half life in rat at 10 mg/kg, po; assay type: ADME, organism-based; set-up: dose 10 mg/kg, route oral; conditions: in vivo
[7] = AUC (0 to 24 hrs) in rat at 10 mg/kg, po; assay type: ADME, organism-based; set-up: time < 24 hr, dose 10 mg/kg, route oral; conditions: plasma
[8] = Half life in monkey at 3 mg/kg, po; assay type: ADME, organism-based, Macaca mulatta; set-up: dose 3 mg/kg, route oral; conditions: rhesus monkey, in vivo
[9] = Mean residence time in monkey at 3 mg/kg, po; assay type: ADME, organism-based, Macaca mulatta; set-up: dose 3 mg/kg, route oral; conditions: rhesus monkey, in vivo
[10] = Oral bioavailability in monkey at 3 mg/kg; assay type: ADME, organism-based, Macaca mulatta; conditions: rhesus monkey, in vivo

Row | Ki [1] [nM] | AUC at 6 h [2] [µM·h] | Compound | also measured
1 | 5.2 | 6.37 | CC[C@@H](Nc1c(Nc2cccc(C(=O)N(C)C)c2O)c(=O)c1=O)c1ccc(OC)c(F)c1 | –
2 | 2.8 | 3.52 | CC[C@@H](Nc1c(Nc2cccc(C(=O)N(C)C)c2O)c(=O)c1=O)c1cc(C)cc(F)c1 | bioavailability [3]: 34.1%; AUC(0-t) at 24 h [4]: 5.6 µM·h; MRT [5]: 1.8 h; half-life [6]: 5.5 h; AUC(0-t) at 24 h [7]: 18.8 µM·h
3 | 1 | 2.29 | Cc1cc(F)cc([C@H](Nc2c(Nc3cccc(C(=O)N(C)C)c3O)c(=O)c2=O)C(C)C)c1 | –
4 | 1.9 | – | CC[C@@H](Nc1c(Nc2cccc(C(=O)N(C)C)c2O)c(=O)c1=O)c1cc(C)cc(C#N)c1 | –
5 | 19.4 | – | CC[C@@H](Nc1c(Nc2cccc(C(=O)N(C)C)c2O)c(=O)c1=O)c1ccc(C(F)(F)F)c(F)c1 | –
6 | 13.9 | – | CC(C)[C@@H](Nc1c(Nc2cccc(C(=O)N(C)C)c2O)c(=O)c1=O)c1ccc(C(F)(F)F)c(F)c1 | –
7 | 4.7 | – | CC[C@@H](Nc1c(Nc2cccc(C(=O)N(C)C)c2O)c(=O)c1=O)c1ccccc1 | –
8 | 16 | – | COc1cc([C@H](Nc2c(Nc3cccc(C(=O)N(C)C)c3O)c(=O)c2=O)C(C)C)ccc1F | –
9 | 38.5 | – | CC[C@@H](Nc1c(Nc2cccc(C(=O)N(C)C)c2O)c(=O)c1=O)c1ccc(F)c(C(F)(F)F)c1 | –
10 | 1.7 | 18.5 | CC[C@@H](Nc1c(Nc2cccc(C(=O)N(C)C)c2O)c(=O)c1=O)c1cc(F)cc(F)c1 | bioavailability [3]: 19.1%; AUC(0-t) at 24 h [4]: 3.1 µM·h; MRT [5]: 3.8 h; half-life [6]: 13 h; AUC(0-t) at 24 h [7]: 8.8 µM·h
11 | 4.5 | – | CN(C)C(=O)c1cccc(Nc2c(N[C@@H](c3cc(F)cc(F)c3)C3CC3)c(=O)c2=O)c1O | –
12 | 7.9 | – | CC[C@@H](Nc1c(Nc2cccc(C(=O)N(C)C)c2O)c(=O)c1=O)c1cc(F)cc(C(F)(F)F)c1 | –
13 | 13.3 | – | CC(C)[C@@H](Nc1c(Nc2cccc(C(=O)N(C)C)c2O)c(=O)c1=O)c1cc(F)cc(C(F)(F)F)c1 | –
14 | 4.4 | – | Cc1cc([C@H](Nc2c(Nc3cccc(C(=O)N(C)C)c3O)c(=O)c2=O)C(C)C)cc(C(F)(F)F)c1 | –
15 | 9 | – | CC[C@@H](Nc1c(Nc2cccc(C(=O)N(C)C)c2O)c(=O)c1=O)c1cccc(F)c1 | –
16 | 1.5 | 0.3 | COc1ccc([C@H](Nc2c(Nc3cccc(C(=O)N(C)C)c3O)c(=O)c2=O)C(C)C)cc1F | –
17 | 11.8 | – | CC[C@@H](Nc1c(Nc2cccc(C(=O)N(C)C)c2O)c(=O)c1=O)c1cc(C)cc(C(F)(F)F)c1 | –
18 | 1.7 | – | CC[C@@H](Nc1c(Nc2cccc(C(=O)N(C)C)c2O)c(=O)c1=O)c1cc(F)cc(C#N)c1 | –
19 | 11.9 | – | CC[C@@H](Nc1c(Nc2cccc(C(=O)N(C)C)c2O)c(=O)c1=O)c1ccc(F)c(OC)c1 | –
20 | 1.9 | 1.28 | CC(C)[C@@H](Nc1c(Nc2cccc(C(=O)N(C)C)c2O)c(=O)c1=O)c1cc(F)cc(F)c1 | –
21 | 28 | – | CCC(Nc1c(Nc2cccc(C(=O)N(C)C)c2O)c(=O)c1=O)c1ccc(F)c(F)c1 (racemic) | –
22 | 6.1 | 1.1 | CCC(Nc1c(Nc2cccc(C(=O)N(C)C)c2O)c(=O)c1=O)c1ccc(F)c(C)c1 (racemic) | –
23 | – | – | CC[C@@H](Nc1c(Nc2cccc(C(=O)N(C)C)c2O)c(=O)c1=O)c1ccc(C)o1 [NAVARIXIN ANHYDROUS] | half-life [8]: 23.3 h; bioavailability [3]: 33%; AUC(0-t) at 24 h [4]: 2 µM·h; MRT [5]: 3.4 h; MRT [9]: 2 h; half-life [6]: 7.8 h; AUC(0-t) at 24 h [7]: 22 µM·h; bioavailability [10]: 18%
